Data reported in a melting point compilation (Tetko et al.; mined from patent text by program, amines drawn as free bases though some values may be those of a salt).

| Structure (SMILES) | melting point |
| --- | --- |
| COC(=N)c1cc(Oc2ccc(C(F)(F)F)cc2Cl)ccc1[N+](=O)[O-] | 46 °C |
| O=C1c2ccccc2C(=O)N1CCn1nnc(C(F)(F)F)n1 | 98 to 99.5 °C |
| O=[N+]([O-])c1cnc2cc(Cl)ccc2c1Nc1ccc(F)cc1 | 198 to 200 °C |
| Oc1ccccc1-c1nnn[nH]1 | 228 °C |
| Cc1ccc2c(c1)C(C)(Cl)C(=S)N2 (stereo not drawn) | 185 to 187 °C |
| COc1cc(CN/C=C2\C(=O)NC(=O)c3ccc(Br)cc32)ccc1O | 260 to 261 °C |
| CCOC(=O)c1c(Nc2ccc(Cl)cc2C)n[nH]c1C | 156 to 187 °C |
| CC(C)(C)O[C@@H]1C[C@H]2C(=O)O[C@H](C(Cl)(Cl)Cl)N2C1 | 147 °C |
| CCOC(=O)c1ccc(C#Cc2ccc(C)cc2)c(OC)c1 | 71 to 73 °C |
| CCNC(=O)C=Cc1ccc(C(=C(CC)c2ccccc2)c2ccccc2)cc1 | 192 to 193 °C |
| CCC(C)c1ccc(-n2c(-c3cc(C)c(OCCO)c(C)c3)nc3cc(S(C)(=O)=O)ccc3c2=O)cc1 (stereo not drawn) | 235 to 237 °C |
| CCOc1ccc2c(c1)n(C1CCCCC1)c(=O)n2S(=O)(=O)c1ccc([N+](=O)[O-])cc1OC | 162 °C |
| COC(=O)C1CN(C)CCC1c1ccc(Cl)c(Cl)c1 (stereo not drawn) | 70 to 75 °C |
| O=C(N=c1sc2cc(OC(F)(F)F)ccc2n1CCN1CCN(c2ccccn2)CC1)C(F)(F)F | 132 °C |
| CC(C)c1nc(C(C)C)c(CNC2CCCCC2)c(-c2ccc(F)cc2)c1CO | 131 to 133 °C |
| CC1(C)CCC(C)(C)c2cc(C(O)C#Cc3ccc(C(=O)O)cc3)ccc21 (stereo not drawn) | 146 to 147 °C |
| CCc1c(C)c(=O)oc2cc(O)ccc12 | 184 °C |
| C#CC1(O)CCc2c(OC)ccc(OC)c2C1 (stereo not drawn) | 103 to 105 °C |
| OC/C=C/CC/C=C/CC/C=C/CO | 37 to 38 °C |
| Cc1c(C(=O)Nc2ccc(N3CCC(NCCO)CC3)c(C#N)c2)cnn1-c1ccc(Cl)cc1 | 181 °C |
| CC(C)(O/N=C(\C(=O)Sc1nc2ccccc2s1)c1csc(N)n1)C(=O)OC(c1ccccc1)c1ccccc1 | 110 °C |
| NP(N)(=O)OCCCCl | 111 to 112 °C |
| C=Cn1nc(-c2cc(C(C)(C)C)c(O)c(C(C)(C)C)c2)c2ccc(C)nc21 | 136 to 137 °C |
| Cc1cc(C(C)C)c(C=O)[nH]1 | 90 to 93 °C |
| COc1ccc(-c2cc(N)n[nH]2)cc1OC | 124 to 125 °C |
| C=C(Br)c1cc(O)cc2nc(-c3ccc(O)c(F)c3F)oc12 | 240 to 242 °C |

| Structure (SMILES) | melting point |
| --- | --- |
| O=C(O)CCCCNS(=O)(=O)c1ccc(N2CCCCCCC2)cc1 | 149 to 150 °C |
| Cc1cc(C)cc(NC(=O)[C@@H](C)N)c1 | 134 to 136 °C |
| CC(CO)NC(=O)NCCCCC1CCSS1 (stereo not drawn) | 87 to 89 °C |
| C=CCN1N=C(c2ccc3c(c2)N(S(C)(=O)=O)CCO3)CCC1=O | 153 to 155 °C |
| CC(=O)Cn1cnc2c1c(=O)n(CC1CC1)c(=O)n2C1CCCC1 | 155 °C |
| Cc1ccccc1C(CCC(=O)O)Oc1cc(OCc2cccnc2)ccc1C(=O)c1ccccc1 (stereo not drawn) | 185 to 186 °C |
| COc1ccc(-c2sc3c(c2CBr)c(=O)c(C(C)=O)cn3Cc2ccccc2F)cc1 | 226 to 228 °C |
| CCCc1c(OCCCOc2ccc(Sc3ccccc3CC(=O)O)cc2)ccc(C(C)=O)c1O | 123 to 124 °C |
| CC(C)NCC(O)COc1ccccc1-n1cccc1 (stereo not drawn) | 80 to 81 °C |
| COc1cc(OC)nc(OC2C(=O)OCC2(C)C)n1 (stereo not drawn) | 139 to 142 °C |
| Nc1cc(N2CCCC2)c(F)cc1[N+](=O)[O-] | 115 to 116 °C |
| CC1CCN(c2cc(F)cc(C(=O)Nc3ccc(Oc4ccnc(NC5CCCC5)n4)c4ccccc34)c2)CC1 | 88 to 90 °C |
| CCOC(=O)c1nn(-c2ccc(Cl)cc2)c(=O)c2c(N)scc12 | 189 to 191 °C |
| CCOC(=O)Cc1nccc(NC=O)n1 | 80 to 93 °C |
| Cc1cc(COc2ccc(C(N)=O)cc2)c2c(N)c(C(N)=O)sc2n1 | > 250 °C |
| CON=Cc1nc2c(N)nc3ccccc3c2n1CC(C)C | 181 to 183 °C |
| CC(C)(C)OC(=O)N1CC(O)C(N=[N+]=[N-])C1 (stereo not drawn) | 34 to 36 °C |
| CCOC(=O)N1C(NC(C)C)=NS(=O)(=O)c2c1sc(C)c2C#N | 116 to 119 °C |
| CN1CCN(c2cccc3nc4n(c(=O)c23)-c2ccc(F)cc2C4=O)CC1 | 232 to 233 °C |
| CCS(=O)(=O)c1ccc(C2=C(c3ccc(S(C)(=O)=O)cc3)OC(C)(C)C2=O)cc1 | 198 to 203 °C |
| CC(C)C1(C)C(=O)NC2(O)c3ncccc3C(=O)N21 (stereo not drawn) | 151 to 153 °C |
| COc1ccc(CCNc2nc(Cl)ccc2N)cc1OC | 90 to 91 °C |
| O=C(Nc1nc2ccccc2[nH]1)c1ccc(Cl)c(Cl)c1 | 251 to 252 °C |
| COc1cccc2c1C(=O)c1c(cc3c(c1O)CCC(C(C)=O)C3)C2=O (stereo not drawn) | 222 to 225 °C |
| N#CCC(=O)NC1CCCCC1NC(=O)CC#N (stereo not drawn) | 202 to 204 °C |
| CCn1cc(C(=O)O)c(=O)c2cc(F)c(N3CCNCC3)c(OC)c21 | 169 °C |

| Structure (SMILES) | melting point |
| --- | --- |
| O=c1[nH]c2ccc(Br)cc2n1Cc1ccccc1 | 245 to 246 °C |
| Cc1ccc([N+](=O)[O-])cc1S(=O)(=O)n1c(Br)nc(Br)c1C | 187 to 189 °C |
| CSc1sc(-c2ncn(C)n2)c2c1C(=O)CC(C)(C)C2 | 146 to 148 °C |
| O=c1c(Cc2ccccc2)c(-c2ccccc2)oc2cc(OCC3CO3)ccc12 (stereo not drawn) | 133 to 138 °C |
| CC1(C)CCC(=O)CC1S(=O)(=O)c1ccccc1 (stereo not drawn) | 84 to 86 °C |
| [N-]=[N+]=NCCCc1cn(S(=O)(=O)c2c(Cl)nc3sccn23)c2ccc(F)cc12 | 84 to 86 °C |
| OC(CCc1ccc(F)cc1)c1cnc2sc3c(n12)CCCCC3 (stereo not drawn) | 144 to 146 °C |
| COC(=O)CCC(NC(=O)Nc1cccc(C)c1)C(=O)O (racemic) | 127 °C |
| COc1ccc2[nH]c3c([N+](=O)[O-])ccc(Cl)c3c(=O)c2c1 | 262 to 264 °C |
| O=C(CBr)c1ccc(OCc2ccccc2)c(CCOCc2ccccc2)c1 | 53 to 56 °C |
| Cc1cccc(C)c1NCc1nnc(S)n1C | 172 to 173 °C |
| COc1ccc(C(=O)c2ccccc2)cc1Cl | 87 °C |
| CC(C)OC(=O)N1CCC(c2nc3cc(-c4ccc(C(=O)O)cn4)ccc3o2)CC1 | 239 to 242 °C |
| CC(=O)C1CNCc2c1[nH]c1cnc3cc(Cl)ccc3c21 (stereo not drawn) | 235 to 237 °C |
| CN1C(=O)C(NC(=O)CCC2CCCCC2)N=C(c2ccccc2)c2cnccc21 (stereo not drawn) | 170 to 173 °C |
| Cc1cc(C)c(C(=O)P(=O)(C(=O)c2c(C)cc(C)cc2C)c2ccccc2)c(C)c1 | 130 to 131 °C |
| CC1=CN2CCS(=O)(=O)N=C2C(c2ccc(Oc3ccccc3)cc2)=N1 | 92 to 92.5 °C |
| N#CC(=Cc1cc(O)c(O)c([N+](=O)[O-])c1)C(N)=O | 296 to 298 °C |
| C[C@H]1CCCC(C)(C)[C@@H]1C(=O)c1ccoc1 | 114 to 116 °C |
| COc1ccc(-c2csc(CO)c2)cc1 | 136 to 138 °C |
| COc1ccc(C2CCC(=O)CC2NC(=O)c2ccc(OCC3CC3)c(OCC3CC3)c2)cc1OC (stereo not drawn) | 150 to 152 °C |
| COc1cc(CN[C@@H](CC(C)C)C(=O)N2CCN(C(c3ccc(F)cc3)c3ccc(F)cc3)CC2)cc(OC)c1OC | 58 to 62 °C |
| CCCN1CCCC2CC3=C(CCC(=O)N3)CC21 (stereo not drawn) | 183 to 184 °C |
| Nc1nc2ccccc2c2sc(CCc3ccccc3)nc12 | 158 to 159 °C |
| Cn1ncnc1COc1nc2c(cc1-c1cccs1)nnn2-c1ccccc1F | 160 to 162 °C |
| CC(=O)Oc1ccccc1C(=O)NC(O)C(Cl)(Cl)Cl (stereo not drawn) | 124 to 126 °C |

| Structure (SMILES) | melting point |
| --- | --- |
| COc1ccc(-c2cn(C)cc(-c3cccc(C(F)(F)F)c3)c2=O)cc1 | 160 to 162 °C |
| CC(/C=C/C(=O)OC(C)(C)C)=C\c1ccc([N+](=O)[O-])cc1 | 120 to 122 °C |
| CC1(C)CCC(C)(C)c2cc(C(=O)COc3ccc(C(=O)O)cc3)ccc21 | 168 to 170 °C |
| COC(=O)NC(CC(=O)c1ccc(Cl)cc1)C(=O)O (stereo not drawn) | 141 to 142 °C |
| O=C1c2cccc3cccc(c23)C1Br (stereo not drawn) | 100 to 105 °C |
| COc1cc2c(Nc3cc(CN4CCCC4)c(O)c(CN4CCCC4)c3)ncnc2c(OC)c1OC | 189 to 191 °C |
| C/C(=C(\C#N)C(N)=S)N1CCCCCCC1 | 149 to 150 °C |
| CC1(C)CCSc2cc(C(=O)O)ccc21 | 202 to 204 °C |
| COC(=O)Cc1cccc(OC)c1OCCCc1cn(-c2ccc([N+](=O)[O-])cn2)nc1C(C)C | 108 to 109 °C |
| O=C(O)CCc1ccc(CCNS(=O)(=O)c2ccccc2)cc1 | 102 to 103 °C |
| COc1ncnc(N2CCc3ccccc3CC2)c1[N+](=O)[O-] | 147 to 150 °C |
| CCOC(=O)C=Cc1ccc(OC)c(-c2cc3c(cc2OCCCCCC(=O)OC(C)(C)C)C(C)(C)CCC3(C)C)c1 | 130 to 132 °C |
| Cc1cccc(-c2cc(C(F)(F)F)cc3c2OC(CN)C3)c1 (stereo not drawn) | > 250 °C |
| COC(=O)c1oc2c(OC)cccc2c1O | 114 °C |
| Cn1nc(-c2cc(C=O)c(Cl)cc2F)c(Cl)c1C(F)(F)F | 70 to 72 °C |
| CCOC(=O)c1nn(-c2ccccc2)c2c1CCCC2 | 102 to 103 °C |
| CCCCCCCCCCCCCCCCCCOc1cc(N)cc(NC(C)=O)c1 | 115 to 117 °C |
| Cc1ccc(C(=O)O)c(Nc2cc(C)nn2C)c1 | 188 to 192 °C |
| CCc1nc2cc(NC)c(Cl)cc2n1-c1ccc(CCNC(=O)NS(=O)(=O)c2ccc(C)cc2)cc1 | 95 to 100 °C |
| O=C(O)CC1(O)CC(CCCCCCc2ccc(Cl)cc2Cl)OC1=O (stereo not drawn) | 77 to 79 °C |
| Cc1nc2ccccc2n1CCc1ccccc1 | 104 to 106 °C |
| CC(C)c1ccc2c(c1)c(S(=O)(=O)c1ccccc1C(C)C)c(CC(C)(C)C(=O)O)n2Cc1ccc(Cl)cc1 | 181 to 182 °C |
| CC(C)(C)c1ccc(C(O)(c2ccccc2)C2CCN(CCCC(O)c3ccccc3)CC2)cc1 (stereo not drawn) | 161 to 163 °C |
| COc1ccc(OCCCCCBr)c(C2Sc3cc(Cl)ccc3N(C)C2=O)c1 (stereo not drawn) | 105 to 106 °C |
| COc1ccc(C(=O)NNC(=O)c2occ(-c3ccccc3)c2-c2ccccc2)cc1F | 110 to 112 °C |
